In article PMC10999543, “Identification of kinase modulators as host-directed therapeutics against intracellular methicillin-resistant Staphylococcus aureus” (Frontiers in Cellular and Infection Microbiology, 2024):
Where two headings read alike, the source gives them in different places.

Columns and labels:
[1] = system: HeLa cells; test: Compound screen by flow cytometry: HeLa cell count as surrogate readout of cell viability (z-scoreHeLa); type: cell-based, human; also: test concentration or dose not given here
Summary of the method: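 The viability surrogate was the count of fixed HeLa cells by flow cytometry, converted to z-scores against DMSO controls with values deviating two-fold excluded. Before counting, cells had been infected with MRSA for 1 h and cleared of extracellular bacteria with gentamicin. They were then exposed overnight to kinase inhibitors in triplicate.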

[2] = system: intracellular MRSA; type: cell-based, Staphylococcus aureus; conditions: for %GFP+ rep 1 / %GFP+ rep 2 / %GFP+ rep 3 / z-scoreMRSA+ mean / z-scoreMRSA+ rep 1 / z-scoreMRSA+ rep 2 / z-scoreMRSA+ rep 3: MRSA-infected HeLa cells; for %GFP+ rep 1 / z-scoreMRSA+ rep 1: replicate 1; for %GFP+ rep 2 / z-scoreMRSA+ rep 2: replicate 2; for %GFP+ rep 3 / z-scoreMRSA+ rep 3: replicate 3; for z-scoreMRSA+ mean: mean of 3 replicates; as to %GFP+ rep 1: test concentration or dose not given here; as to %GFP+ rep 2: test concentration or dose not given here; as to %GFP+ rep 3: test concentration or dose not given here; as to effect: test concentration or dose not given here; as to z-scoreMRSA+ mean: test concentration or dose not given here; as to z-scoreMRSA+ rep 1: test concentration or dose not given here; as to z-scoreMRSA+ rep 2: test concentration or dose not given here; as to z-scoreMRSA+ rep 3: test concentration or dose not given here
Summary of the method: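 Values are z-scores: GFP-positive HeLa percentage and event count per well against plate statistics, minus the mean DMSO z-score. Wells deviating two-fold from controls were left out of plate means. Infection was at a mean MOI of 6.8, with an overnight compound exposure.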

[3] = PKIS compound screen raw data, HeLa cell count, replicate 1
[4] = PKIS compound screen raw data, HeLa cell count, replicate 2
[5] = PKIS compound screen raw data, HeLa cell count, replicate 3
[6] = PKIS compounds raw data, replicate 1, HeLa cell count
[7] = PKIS compounds raw data, replicate 2, HeLa cell count
[8] = PKIS compounds raw data, replicate 3, HeLa cell count
[9] = Yes/No: effect without cell death
[10] = compound screen, HeLa cell count, mean of 3 replicates
[11] = compound screen, HeLa cell count, replicate 1
[12] = compound screen, HeLa cell count, replicate 2
[13] = compound screen, HeLa cell count, replicate 3

| SMILES | cell count rep 1 [1, 3] | cell count rep 2 [1, 4] | cell count rep 3 [1, 5] | cell count rep 1 [1, 6] | cell count rep 2 [1, 7] | cell count rep 3 [1, 8] | cell death ([1]; Yes/No call from z-scoreHeLa) | %GFP+ rep 1 ([2]; PKIS compounds raw data) [%] | %GFP+ rep 2 ([2]; PKIS compounds raw data) [%] | %GFP+ rep 3 ([2]; PKIS compounds raw data) [%] | effect ([2]; Yes/No call from z-scoreMRSA+) | hit [2, 9] | z-scoreMRSA+ mean ([2]; compound screen) | z-scoreMRSA+ rep 1 ([2]; compound screen) | z-scoreMRSA+ rep 2 ([2]; compound screen) | z-scoreMRSA+ rep 3 ([2]; compound screen) | z-scoreHeLa mean [1, 10] | z-scoreHeLa rep 1 [1, 11] | z-scoreHeLa rep 2 [1, 12] | z-scoreHeLa rep 3 [1, 13] | also measured |
| --- | --- | --- | --- | --- | --- | --- | --- | --- | --- | --- | --- | --- | --- | --- | --- | --- | --- | --- | --- | --- | --- |
| CN(C)CCCNc1nccc(-c2c(-c3ccc(F)cc3)nn3cc(C(F)(F)F)ccc23)n1 [GW618013A] | 23652 | 24495 | 45248 | – | – | – | – | – | – | – | – | – | – | – | – | – | – | – | – | – | z-scoreHeLa mean ([1]; PKIS compound screen, HeLa cell count, mean of 3 replicates): -0.21; z-scoreHeLa rep 1 ([1]; PKIS compound screen, HeLa cell count, replicate 1): 0.54; z-scoreHeLa rep 2 ([1]; PKIS compound screen, HeLa cell count, replicate 2): -1.92; z-scoreHeLa rep 3 ([1]; PKIS compound screen, HeLa cell count, replicate 3): 0.75; cell death ([1]; PKIS compound screen, Yes/No call on z-scoreHeLa): No; %GFP+ rep 1 ([2]; PKIS compound screen raw data): 10.7%; %GFP+ rep 2 ([2]; PKIS compound screen raw data): 13.4%; %GFP+ rep 3 ([2]; PKIS compound screen raw data): 14.0%; z-scoreMRSA+ mean ([2]; PKIS compound screen): -1.86; z-scoreMRSA+ rep 1 ([2]; PKIS compound screen): -2.27; z-scoreMRSA+ rep 2 ([2]; PKIS compound screen): -1.54; z-scoreMRSA+ rep 3 ([2]; PKIS compound screen): -1.76; hit ([2]; PKIS compound screen, Yes/No call (effect without cell death)): No; effect ([2]; PKIS compound screen, Yes/No call on z-scoreMRSA+): No |
| Clc1ccc(CNc2nccc(-c3cnn4ncccc34)n2)cc1 [GW781673X] | – | – | – | 3767 | 3267 | 5990 | No | 13.1 | 14.6 | 14.3 | No | No | -0.04 | -0.0227 | 0.37 | -0.47 | – | – | – | – | z-scoreHeLa mean ([1]; human): -0.71; z-scoreHeLa rep 1 ([1]; human): -0.91; z-scoreHeLa rep 2 ([1]; human): -0.76; z-scoreHeLa rep 3 ([1]; human): -0.46 |
| Nc1nc(-c2ccc3c(c2)C(=Cc2cc(Br)c(O)c(Br)c2)C(=O)N3)cs1 [GW407323A] | – | – | – | 5658 | 5858 | 9419 | No | 16.4 | 13.5 | 13.8 | No | No | 0.14 | 1.03 | 0.0015 | -0.62 | 1.06 | 0.80 | 1.20 | 1.18 | – |
| COc1cc(C=NNc2ncnc3c2cnn3-c2ccccc2)ccc1O [GW513184X] | – | – | – | 3697 | 5698 | 7463 | No | 11.7 | 13.3 | 13.0 | No | No | -0.46 | -0.47 | -0.0654 | -0.85 | 0.11 | -0.98 | 1.08 | 0.24 | – |
| COC(=O)Nc1nc2ccc(Oc3ccc(NC(=O)Nc4cc(C(F)(F)F)ccc4Cl)cc3)cc2[nH]1 [GW697465A] | 4644 | 3894 | 5423 | – | – | – | No | – | – | – | No | No | -0.59 | -0.44 | -0.59 | -0.75 | 0.00465 | 0.21 | -0.31 | 0.12 | %GFP+ rep 1 ([2]; PKIS compound screen raw data): 23.4%; %GFP+ rep 2 ([2]; PKIS compound screen raw data): 20.2%; %GFP+ rep 3 ([2]; PKIS compound screen raw data): 19.7% |
